Experimental data: ChEMBL document CHEMBL5608180, “DNA G-quadruplexes in the genome of Trypanosoma cruzi as potential therapeutic targets for Chagas disease: Dithienylethene ligands as effective antiparasitic agents” (Eur J Med Chem, 2024)
The source made the active and inactive calls. No cut-off for these calls is given here.

What was measured:
[1] = test system: Trypanosoma cruzi; test: Antiparasitic activity against epimastigote form of Trypanosoma cruzi Y(TcII) assessed as inhibition of parasite growth incubated for 96 hrs followed by incubation with resazurin for 4 to 6 hrs by resazurin dye based fluorescence analysis; format: functional, organism-based
[2] = test system: Trypanosoma cruzi; test: Antiparasitic activity against epimastigote form of Trypanosoma cruzi SOL(TcV) assessed as inhibition of parasite growth incubated for 96 hrs followed by incubation in dark with resazurin for 4 to 6 hrs by resazurin dye based fluorescence analysis; format: functional, organism-based
[3] = test system: Trypanosoma cruzi; test: Antiparasitic activity against epimastigote form of Trypanosoma cruzi BM Lopez (TcIa) assessed as inhibition of parasite growth incubated for 96 hrs followed by incubation with resazurin for 4 to 6 hrs by resazurin dye based fluorescence analysis; format: functional, organism-based
[4] = test system: Trypanosoma cruzi; test: Antiparasitic activity against epimastigote form of Trypanosoma cruzi DA (TcI) assessed as inhibition of parasite growth incubated for 96 hrs followed by incubation with resazurin for 4 to 6 hrs by resazurin dye based fluorescence analysis; format: functional, organism-based
[5] = Cytotoxicity against human MRC5 cells; format: toxicity, cell-based
[6] = Selectivity index, ratio of IC50 for cytotoxicity against human MRC5 cells to IC50 for antiparasitic activity against epimastigote form of Trypanosoma cruzi Y (TcII); format: toxicity, cell-based; conditions: read-out: Ratio IC50
[7] = Selectivity index, ratio of IC50 for cytotoxicity against human MRC5 cells to IC50 for antiparasitic activity against epimastigote form of Trypanosoma cruzi SOL (TcV); format: toxicity, cell-based; conditions: read-out: Ratio IC50
[8] = Selectivity index, ratio of IC50 for cytotoxicity against human MRC5 cells to IC50 for antiparasitic activity against epimastigote form of Trypanosoma cruzi BM Lopez (TcIa); format: toxicity, cell-based; conditions: read-out: Ratio IC50
[9] = Selectivity index, ratio of IC50 for cytotoxicity against human MRC5 cells to IC50 for antiparasitic activity against epimastigote form of Trypanosoma cruzi DA (TcI); format: toxicity, cell-based; conditions: read-out: Ratio IC50
[10] = test system: Trypanosoma cruzi; test: Antiparasitic activity against trypomastigote form of Trypanosoma cruzi SOL (MHOM/ES/2008/SOL; DTU V) assessed as inhibition of parasite growth incubated for 96 hrs followed by incubation in dark with resazurin for 4 to 6 hrs by resazurin dye based fluorescence analysis; format: functional, organism-based
[11] = Selectivity index, ratio of IC50 for cytotoxicity against human MRC5 cells to IC50 for antiparasitic activity against trypomastigote form of Trypanosoma cruzi SOL (TcV); format: toxicity, cell-based; conditions: read-out: Ratio IC50
[12] = test system: Quadruplex DNA; test: Stabilization of Trypanosoma cruzi G-quadruplex RCr DNA (FAM-5'-GGGGACGGGAATGGGGGTGCATGAGGGG-3'-TAMRA) assessed as change in apparent melting temperature at 5 uM by FRET melting analysis; format: nucleic-acid assay
[13] = test system: Quadruplex DNA; test: Stabilization of Trypanosoma cruzi G-quadruplex MCr DNA (FAM-5'-GTGGAGGGGGAGGGTCATGGGG-3'-TAMRA) assessed as change in apparent melting temperature at 5 uM by FRET melting analysis; format: nucleic-acid assay
[14] = test system: Quadruplex DNA; test: Stabilization of Trypanosoma cruzi G-quadruplex TCr DNA (FAM-5'-GGGAGGGACGGATGGGCAGAAACGGG-3'-TAMRA) assessed as change in apparent melting temperature at 5 uM by FRET melting analysis; format: nucleic-acid assay
[15] = test system: Quadruplex DNA; test: Stabilization of human telomere G-quadruplex F21T DNA (FAM-5'-GGGTTAGGGTTAGGGTTAGGG-3'-TAMRA) assessed as change in apparent melting temperature at 5 uM by FRET melting analysis; format: nucleic-acid assay
[16] = test system: Quadruplex DNA; test: Stabilization of human proto-oncogene G-quadruplex MYC DNA (FAM-5'-TTGAGGGTGGGTAGGGTGGGTAA-3'-TAMRA) assessed as change in apparent melting temperature at 5 uM by FRET melting analysis; format: nucleic-acid assay
[17] = test system: dsDNA; test: Binding affinity to human duplex FdxT DNA (FAM-5'-TATAGCTAT-peg-TATAGCTATA-3'-TAMRA) at 5 uM by FRET melting analysis; format: nucleic-acid assay
[18] = test system: Quadruplex DNA; test: Stabilization of Trypanosoma cruzi G-quadruplex RCr DNA (FAM-5'-GGGGACGGGAATGGGGGTGCATGAGGGG-3'-TAMRA) at 10 uM by FRET melting analysis; format: nucleic-acid assay
[19] = test system: Quadruplex DNA; test: Stabilization of human telomere G-quadruplex F21T DNA (FAM-5'-GGGTTAGGGTTAGGGTTAGGG-3'-TAMRA) at 5 uM in presence of 1 to 10 uM double stranded ds26 DNA by FRET melting analysis; format: nucleic-acid assay
[20] = test system: Quadruplex DNA; test: Stabilization of Trypanosoma cruzi G-quadruplex RCr DNA (FAM-5'-GGGGACGGGAATGGGGGTGCATGAGGGG-3'-TAMRA) at 5 uM in presence of 1 to 10 uM double stranded ds26 DNA by FRET melting analysis; format: nucleic-acid assay
[21] = test system: Quadruplex DNA; test: Binding affinity to Trypanosoma cruzi G-quadruplex RCr DNA (FAM-5'-GGGGACGGGAATGGGGGTGCATGAGGGG-3'-TAMRA) assessed as broadening of imino proton signals with delta shift at 1 equiv. by 1H-NMR analysis; format: nucleic-acid assay
[22] = test system: Quadruplex DNA; test: Binding affinity to Trypanosoma cruzi G-quadruplex MCr DNA (FAM-5'-GTGGAGGGGGAGGGTCATGGGG-3'-TAMRA) assessed as broadening of imino proton signals at 1 equiv. by 1H-NMR analysis; format: nucleic-acid assay
[23] = test system: Quadruplex DNA; test: Binding affinity to Trypanosoma cruzi G-quadruplex TCr DNA (FAM-5'-GGGAGGGACGGATGGGCAGAAACGGG-3'-TAMRA) assessed as broadening of imino proton signals at 1 equiv. by 1H-NMR analysis; format: nucleic-acid assay
[24] = test system: Quadruplex DNA; test: Binding affinity to Trypanosoma cruzi G-quadruplex RCr DNA (FAM-5'-GGGGACGGGAATGGGGGTGCATGAGGGG-3'-TAMRA) assessed as increase in melting temperature at DNA:compound concentration ratio of 1:2 by CD melting assay; format: nucleic-acid assay
[25] = test system: Quadruplex DNA; test: Binding affinity to Trypanosoma cruzi G-quadruplex MCr DNA (FAM-5'-GTGGAGGGGGAGGGTCATGGGG-3'-TAMRA) at DNA:compound concentration ratio of 1:1 to 1:2 by CD melting assay; format: nucleic-acid assay
[26] = test system: Quadruplex DNA; test: Binding affinity to Trypanosoma cruzi G-quadruplex RCr DNA (FAM-5'-GGGGACGGGAATGGGGGTGCATGAGGGG-3'-TAMRA) assessed as decrease in absorption with shift to higher wavelength at 25 uM by UV-Vis spectrophotometric analysis; format: nucleic-acid assay
[27] = test system: Quadruplex DNA; test: Binding affinity to Trypanosoma cruzi G-quadruplex MCr DNA (FAM-5'-GTGGAGGGGGAGGGTCATGGGG-3'-TAMRA) assessed as decrease in absorption with shift to higher wavelength at 25 uM by UV-Vis spectrophotometric analysis; format: nucleic-acid assay
[28] = test system: dsDNA; test: Binding affinity to double stranded ds26 DNA (unknown origin) assessed as decrease in absorbance with shift to lower wavelength at 25 uM by UV-Vis spectrophotometric analysis; format: nucleic-acid assay
[29] = Drug uptake in epimastigote form of Trypanosoma cruzi BM Lopez at 20 uM measured after 2 hrs by fluorescence microscopy; format: ADME
[30] = Drug uptake in epimastigote form of Trypanosoma cruzi BM Lopez assessed as localization in kinetoplast and nucleus at 20 uM measured after 4 hrs by fluorescence microscopy; format: ADME
[31] = Drug uptake in epimastigote form of Trypanosoma cruzi BM Lopez assessed as localization in kinetoplast and nucleus at 20 uM measured after 24 hrs by fluorescence microscopy; format: ADME
[32] = test system: Trypanosoma cruzi; test: Potency index, ratio of Benznidazole IC50 to test compound IC50 for antiparasitic activity against trypomastigote form of Trypanosoma cruzi SOL (MHOM/ES/2008/SOL; DTU V) by resazurin dye based fluorescence analysis; format: functional
[33] = test system: Quadruplex DNA; test: Binding affinity to Trypanosoma cruzi G-quadruplex RCr DNA (FAM-5'-GGGGACGGGAATGGGGGTGCATGAGGGG-3'-TAMRA) assessed as decrease in absorption with shift to higher wavelength at 30 uM by UV-Vis spectrophotometric analysis; format: nucleic-acid assay
[34] = test system: Quadruplex DNA; test: Binding affinity to Trypanosoma cruzi G-quadruplex MCr DNA (FAM-5'-GTGGAGGGGGAGGGTCATGGGG-3'-TAMRA) assessed as decrease in absorption with shift to higher wavelength at 30 uM by UV-Vis spectrophotometric analysis; format: nucleic-acid assay
[35] = test system: dsDNA; test: Binding affinity to double stranded ds26 DNA (unknown origin) assessed as decrease in absorbance with shift to lower wavelength at 30 uM by UV-Vis spectrophotometric analysis; format: nucleic-acid assay

Cc1sc(-c2cccc3cc[n+](C)cc23)cc1C1=C(c2cc(-c3cccc4cc[n+](C)cc34)sc2C)CCC1.[I-].[I-]
IC50 [1]: 19.5 µM
IC50 [2]: 20.8 µM
IC50 [3]: 30.1 µM
IC50 [4]: 21.2 µM
IC50 [5]: 61.4 µM
selectivity ratio [6]: 3.1
selectivity ratio [7]: 2.9
selectivity ratio [8]: 2
selectivity ratio [9]: 2.9
IC50 [10]: 1.5 µM
selectivity ratio [11]: 40.9
ΔTm [12]: 17 °C
ΔTm [13]: 14 °C
ΔTm [14]: 17 °C
ΔTm [15]: 17 °C
ΔTm [16]: 17 °C
Activity [17]: inactive
Activity [18]: Active
Activity [19]: Active
Activity [20]: Active
Activity [21]: Active
Activity [22]: Active
Activity [23]: Active
ΔTm [24]: 6.98 °C
Activity [25]: Active
Activity [26]: Active
Activity [27]: Active
Activity [28]: inactive
Drug uptake [29]: Active
Drug uptake [30]: Active
Drug uptake [31]: Active
Ratio IC50 [32]: 38

C[C@]12SC(c3ccc4cccnc4c3)=CC1=C1CCCC1=C1C=C(c3ccc4cccnc4c3)S[C@@]12C
IC50 [1]: 20.9 µM
IC50 [2]: 22.3 µM
IC50 [3]: 40.7 µM
IC50 [4]: 20.6 µM
IC50 [5]: 82.5 µM
selectivity ratio [6]: 3.9
selectivity ratio [7]: 3.7
selectivity ratio [8]: 2
selectivity ratio [9]: 4
IC50 [10]: 3.3 µM
selectivity ratio [11]: 25
ΔTm [12]: 17 °C
ΔTm [13]: 14 °C
ΔTm [14]: 17 °C
ΔTm [15]: 17 °C
ΔTm [16]: 17 °C
Activity [17]: inactive
Activity [18]: Active
Activity [19]: Active
Activity [20]: Active
Activity [21]: Active
Activity [22]: Active
Activity [23]: Active
ΔTm [24]: 3.81 °C
Activity [25]: Active
Activity [33]: Active
Activity [34]: Active
Activity [35]: inactive
Ratio IC50 [32]: 17
